Data taken from patent US5373089A, “Oxytocin antagonist” (Northwestern University, priority 1993, dated 1994).
Starred links: 1 amine or outer side, 2 acyl side, 3 side chain; linkers in the order of their positions; H or OH if unused. Positions of bridges follow the written chain, without caps; N, C: chain ends. Non-standard residues stand in square brackets, D forms with d. Residues, ends and D or L forms follow the SMILES beside them. X1 = O=C(CC1(S[*:2])CCCCC1)[*:1]; Pen = CC(C)(S)[C@H](N)C(=O)O; Orn = NCCC[C@H](N)C(=O)O; Mpa = O=C(O)CCS

Assays:
oxytocin = conditions: reported in the cited literature; cited from earlier work
ESTROUS RAT UTERUS = test: Oxytocic bioassay (isolated rat uterus, integrated contraction response to oxytocin); type: cell-based
Excerpt: The protocol used for the oxytocin bioassay procedure is derived from procedures described in a paper by Sawyer, et al., Endocrinology, 106:81 (1980), which in turn was based on reports of Munsick, Brit. J. Pharmacol., 3:328 (1960), and Holton, Brit. J. Pharmacol., 3:328 (1948). The assay calculations for the pA2 estimates are described by Schild, British J. Pharmacology, 2:189 (1947). The major difference in the present procedure from those reported by others in the field is that the area under the contraction is integrated where most other techniques calculate the amplitude. Integration provides much more consistent and reliable results although the pA2 estimates are approximately an order of magnitude lower than those reported using amplitude of the contraction as the endpoint.
1. Animals--a 1.5 cm piece of uterus from a virgin rat (Holtzman) in natural estrus is used for the assay.
2. Buffer/Assay Bath--The buffer used is Munsicks. […] The buffer is gassed continuously with 95% oxygen; 5% carbon dioxide giving a pH of 7.4. The temperature of the assay bath is 37° C. A 10 ml assay bath is used that contains a water jacket for maintaining the temperature and inlet and outlet spikets for adding and removing buffer.
3. Polygraph/transducer--The piece of uterine tissue used for the assay is anchored at one end and connected to a Statham Strain Gauge Force Transducer at the other end which in turn is attached to a Grass Polygraph Model 79 for monitoring the contractions.
4. Assay Protocol. (a) The tissue is equilibrated in the assay bath for one hour with washing with new buffer every fifteen minutes. One gram of tension is kept on the tissue at all times.
(b) The tissue is stimulated initially with oxytocin at 10 nM to "acclimate" the tissue and with […] KCl to determine the maximum contractile response.
(d) The tissue is exposed to oxytocin (Calbiochemical, San Diego, Calif.) for one minute and washed out. There is a three minute interval before addition of the next dose of the agonist or antagonist. When the antagonist is tested, it is given five minutes before the agonist. The agonist is given for one minute. All responses are integrated using a 7P10 Grass Integrator. This is the major difference between the present protocol and others in the literature which usually measure amplitude of the contractions as the response. A single concentration of oxytocin, equal to 80% of the maximum response, is used to test the antagonist. […] This is repeated three times for each dose of antagonist for a three point assay.
(e) Calculations for pA2 : The dose-response (DR) ratios are calculated for antagonist and a Schild's Plot is performed by plotting the Log (DR-1) vs. Log of antagonist concentration. The line plotted is calculated by least squares regression analysis. The pA2 is the concentration of antagonist at the point where the regression line crosses the 0 point of the Log (DR-1) ordinate. The pA2 is the negative Log of the concentration of antagonist that will reduce the response to the agonist by one-half.
The protocol used for the oxytocin bioassay procedure is derived from procedures described in a paper by Sawyer, et al., Endocrinology, 106:81 (1980), which in turn was based on reports of Munsick, Brit. J. Pharmacol., 3:328 (1960), and Holton, Brit. J. Pharmacol., 3:328 (1948). The assay calculations for the pA2 estimates are described by Schild, Brit. J. Pharmacol. (1947). The major difference in procedure from those previously reported was the integration of the area under the contraction instead of merely calculating the amplitude. Integration provides more consistent and reliable results, although the pA2 estimates are about an order of magnitude lower than those reported using amplitude of the contraction as the endpoint.
A 1.5 cm piece of uterus from a virgin rat (Holtzman) in natural estrus is used for the assay.
The buffer used is Munsick's. […]

ADH = ADH bioassay (alteration in urine output due to ADH); type: in vivo; conditions: in vivo
Protocol: The above compound was also tested for antagonism to vasopressin. Anti-ADH activity can be determined by measuring the alteration in urine output due to ADH in the presence and absence of the antagonist. A suitable ADH-assay is described in Sawyer, et al., Endocrinology, 63:694 (1958). […] The ratio of oxytocin antagonism to ADH antagonism was very high, viz. over 1, 866, as compared with 200 for the compositions disclosed in the parent applications.
The anti-ADH activity is measured by the alteration in urine […] in the presence and absence of the antagonist to determine the specificity of the antagonist. The anti-ADH assay is described in Sawyer, et al., Endocrinology, 63:694 (1958).

RAT OXYTOCIN RECEPTOR = biological target: T1, RAT OXYTOCIN RECEPTOR (Rattus norvegicus, UniProt P70536); test: Oxytocin receptor assay, pregnant rat uterus (P21) membranes, 3H-OT competition; type: binding
T1 construct: from tissue; host or cells: uterus of day-21 pregnant Holtzman rats, sucrose-gradient membrane fraction
T1 sequence (P70536 1-388): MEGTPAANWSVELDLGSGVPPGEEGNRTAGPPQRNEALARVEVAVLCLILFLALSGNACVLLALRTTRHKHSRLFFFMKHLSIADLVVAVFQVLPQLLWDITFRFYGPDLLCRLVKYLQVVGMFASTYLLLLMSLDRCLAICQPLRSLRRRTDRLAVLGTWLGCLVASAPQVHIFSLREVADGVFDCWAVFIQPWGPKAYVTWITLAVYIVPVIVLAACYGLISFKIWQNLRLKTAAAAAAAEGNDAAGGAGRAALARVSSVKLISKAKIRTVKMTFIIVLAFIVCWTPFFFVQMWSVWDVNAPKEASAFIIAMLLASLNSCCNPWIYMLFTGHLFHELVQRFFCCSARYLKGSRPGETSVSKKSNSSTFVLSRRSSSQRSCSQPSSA
Protocol: Uterine tissue was removed on day 21 of pregnancy (delivery=Days 211/2 to 221/2) from Holtzman rats. The tissue was emptied of its contents, rinsed in ice cold buffer, cut into small pieces and frozen at -70° C. until homogenization.
(§1) Oxytocin receptors (OTrs) reside on the cell membrane and are present at high concentrations at the end of pregnancy in uterine tissue. Frozen tissue is homogenized in Tris buffer, the homogenate filtered, and the filtrate centrifuged at 1000 g for 15 minutes at 4° C. The supernatant is centrifuged at 40,000 g for 30 minutes and the pellet containing the cell membranes resuspended in 10% sucrose. Density gradient ultracentrifugation is then performed by placing the 10 % sucrose suspension on top of 35% sucrose and centrifuging for 30 minutes in a swing bucket rotor at 105,000 g. The membranes at the interface of the 10%/35% sucrose are removed and resuspended in Tris buffer containing EDTA for 30 minutes. This procedure removes divalent cation and results in dissociation of any endogenously bound OT to the receptor. This mixture is then centrifuged for 15 minutes at 100,000 g and the pellet containing the membrane OTrs resuspended in Tris, PMSF, Mg^++, buffer by sonication.
(§2) The binding assay consist of 0.1 ml of 20,000 cmp of tritium labeled OT (New England Nuclear, […]), 0.1 ml of OT antagonist added at increasing concentration, 0.25 ml of buffer and 0.05 ml of membrane (70-150 ug protein). A nonspecific tube has 100× of cold OTA added to it. The incubation is for 30 minutes at 30 ° C. The membrane is pelleted by centrifugation in ultraclear mini tubes (5×41 mm) for 30 minutes at 105,000 g. The resulting pellet containing the bound ^3 H-OT is dissolved in 0.1N NaOH at 45 ° C. for 30 minutes and this mixture is then placed in liquid scintillation counting fluid and counted for dpms in a scintillation counter.
(§3) The data is analyzed by nonlinear curve fitting methods using McPherson's EBDA (J Pharmacol Methods 14:213-228, 1985) and Munson and Rodbard's LIGAND (Anal Biochem 107:220-239, 1980) program for saturation and competition analysis for determining Kds and Kis.

HUMAN OXYTOCIN RECEPTOR = biological target: T2, HUMAN OXYTOCIN RECEPTOR (Homo sapiens, UniProt P30559); test: Oxytocin receptor assay, human myometrial tissue membranes, 3H-OT competition; type: binding
T2 construct: Oxytocin receptors (OTrs) reside on the cell membrane and are present at high concentrations at the end of pregnancy in uterine tissue; from tissue; host or cells: human myometrium from cesarean section patients, sucrose-gradient membrane fraction
T2 sequence (P30559 1-389): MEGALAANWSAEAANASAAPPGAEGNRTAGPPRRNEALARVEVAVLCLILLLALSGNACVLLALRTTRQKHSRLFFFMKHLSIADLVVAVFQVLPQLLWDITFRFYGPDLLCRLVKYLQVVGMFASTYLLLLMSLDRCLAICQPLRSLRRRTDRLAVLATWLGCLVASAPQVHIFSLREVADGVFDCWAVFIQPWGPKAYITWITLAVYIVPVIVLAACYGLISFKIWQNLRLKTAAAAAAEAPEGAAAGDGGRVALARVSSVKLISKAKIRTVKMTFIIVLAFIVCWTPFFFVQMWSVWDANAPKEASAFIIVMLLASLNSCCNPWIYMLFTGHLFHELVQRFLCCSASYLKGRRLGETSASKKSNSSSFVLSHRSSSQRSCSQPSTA
Protocol: Human myometrial tissue was collected from patients at the time of cesarian section after informed consent. The tissue was rinsed in cold buffer, cut into small pieces and frozen at -70° C. until homogenization.
as §1, §2, §3

Molecule: 1-deamino, ethyloxytocin
- pA2 (anti-oxytocic, literature) (oxytocin): 7.2

Molecule: 1deamino[D-Tyr(OEt)^2, Thr^4, Orn^8 ] vasopressin
- pA2 (anti-oxytocic, literature) (oxytocin): 8.3

Molecule: CC[C@H](C)[C@@H]1NC(=O)[C@H](Cc2ccccc2)NC(=O)[C@@H](Cc2ccccc2)NC(=O)CC2(CCCCC2)SSC[C@@H](C(=O)N2CCC[C@H]2C(=O)N[C@@H](CCCNC(=N)N)C(=O)NCC(N)=O)NC(=O)[C@H](CC(N)=O)NC1=O [Compound A, [Pmp^1,D-Phe^2,Phe^3,Ile^4,Arg^8] oxytocin, reference compound] ([dF]FINCPRG-NH2; linker N-5 via X1)
- Oxytocic Bioassay pA2 (ESTROUS RAT UTERUS; virgin rat uterus in natural estrus, Munsick's buffer 0.5 mM Mg++, integrated contraction area): 7.35
- ADH Bioassay pA2 (ADH): 7.66

Molecule: CC[C@H](C)[C@@H]1NC(=O)[C@@H](Cc2c[nH]c3ccccc23)NC(=O)CC2(CCCCC2)SSC(C)(C)[C@@H](C(=O)N2CCC[C@H]2C(=O)N[C@@H](CCCNC(=N)N)C(=O)NCC(N)=O)NC(=O)[C@H](CC(N)=O)NC(=O)[C@H](CCC(N)=O)NC1=O [Compound C2, [Pmp^1, DTrp^2, Pen^6, Arg^8] oxytocin] ([dW]IQN[Pen]PRG-NH2; linker N-5 via X1)
- Kd (RAT OXYTOCIN RECEPTOR): 0.00087 µM

Molecule: CC[C@H](C)[C@@H]1NC(=O)[C@@H](Cc2c[nH]c3ccccc23)NC(=O)CC2(CCCCC2)SSC[C@@H](C(=O)N2CCC[C@H]2C(=O)N[C@@H](CCCNC(=N)N)C(=O)NCC(N)=O)NC(=O)[C@H](CC(N)=O)NC(=O)[C@H](CCC(N)=O)NC1=O [Compound C, [Pmp^1, D-Trp^2, Arg^8] oxytocin] ([dW]IQNCPRG-NH2; linker N-5 via X1)
- Kd (RAT OXYTOCIN RECEPTOR): 0.00493 µM
- Kd (HUMAN OXYTOCIN RECEPTOR): 0.00549 µM
- ADH Bioassay pA2 (ADH): 5.51

Molecule: CCOc1ccc(C[C@H]2NC(=O)CCSSC[C@@H](C(=O)N3CCC[C@H]3C(=O)N[C@@H](CCCN)C(=O)NCC(N)=O)NC(=O)[C@H](CC(N)=O)NC(=O)[C@H]([C@@H](C)O)NC(=O)[C@H]([C@@H](C)CC)NC2=O)cc1 [E, [Mpa^1,DTyr(Et)^2,Thr^4, Orn^8] oxytocin, reference compound] ([Mpa][dY](Et)ITNCP[Orn]G-NH2; disulfide 1-6)
- Kd (RAT OXYTOCIN RECEPTOR): 0.0196 µM
- rOTr (OTA/ANTI) (RAT OXYTOCIN RECEPTOR; ratio of binding affinity to ANTAG I, rat oxytocin receptor): 0.4
- Kd (HUMAN OXYTOCIN RECEPTOR): 0.0189 µM
- hOTR (OTA/ANTI) (HUMAN OXYTOCIN RECEPTOR; ratio of binding affinity to ANTAG I, human oxytocin receptor): 1.0
- OXYTOCIC BIOASSAY ED50 (ESTROUS RAT UTERUS; estrous rat uterus, Table 3): 0.10233 µM
- BIOASSAY ED50 (ESTROUS RAT UTERUS; estrous rat uterus, Table 4): 0.1023 µM
- BIOASSAY (ANTI/OTA) (ESTROUS RAT UTERUS; ratio to ANTAG I, rat oxytocic bioassay): 0.3

Molecule: (1-deaminopenicillamine, 2-0-methyltyrosine) oxytocin
- pA2 (anti-oxytocic, literature) (oxytocin): 7.8
